How the values were obtained:
[1] = test system: Trastuzumab; assay: Induction of polyreactivity of Trastuzumab by heme derivatives; format: binding; settings: for induction of polyreactivity of Trastuzumab: exposure of Trastuzumab to the compound; for rank of potential to induce polyreactivity: reactivity towards bacterial antigens
[2] = test system: Trastuzumab; assay: Size-exclusion chromatography, induction of Trastuzumab oligomers by heme or heme analogues; format: physicochemical
[3] = test system: immobilized Trastuzumab; assay: ELISA induction of antibody homophilicity by heme; format: binding
Method: The plates were blocked with PBS 0.25% containing Tween 20 for 1 hour. […] IgG was then diluted two times in PBS-T before incubation on plates for 2 h at room temperature. Following extensive washing, the plates were incubated for 30 min with streptavidin-HRP (Southern Biotech).
IgG was then diluted ten times in PBS-T before incubation on the plates for 2 h at room temperature.

[4] = target: Trastuzumab; assay: SPR binding kinetics and thermodynamics of heme to immobilized Trastuzumab
Method: Trastuzumab was immobilized on a CMS sensor chip (Biacore) by using amine-coupling kit provided by the manufacturer. The Ab was diluted in 5 mM maleic acid (pH 4) to a final concentration of 10 μg/ml. The achieved immobilization level was 6300 resonance unit (RU). All measurements were performed using HBS-EP (0.01M HEPES, pH 7.4 containing 0.15 M NaCl, 3 mM EDTA and 0.05% Tween 20). Initially, a stock solution of heme (hemin, Frontiers Scientific, Logan, Utah) at 1 mM was prepared in 0.05 N NaOH. Heme was further diluted to 10 μM in the running buffer and 8 two-fold dilutions (10-0.078 μM) were injected at flow rate of 30 μl/min. The association and dissociation phases of the interaction were monitored for 5 min and 10 min, respectively. […]
Heme was diluted at 10 μM in HBS-EP and injected at flow rate of 30 ul/min. The association and dissociation phases of the interaction were monitored for 5 min and 10 min, respectively. […]
The kinetic rate constants obtained at different temperatures were used to build Arrhenius plots. The values of slopes of the Arrhenius plots were calculated by using a linear regression analysis of the experimental kinetic data and substituted in Equations 1-4,
Where the “slope”=∂1n(ka/d/∂(1/T), and where Ea is the activation energy. The enthalpy, entropy, and Gibbs free energy changes characterizing the association phase were calculated using Equations 2-4, […]

[5] = test system: Trastuzumab; assay: Quenching of intrinsic tryptophan fluorescence of Trastuzumab by heme; format: binding
Method: The Ab was diluted to 0.1 μM in PBS and titrated with increasing concentrations (0, 0.01, 0.025, 0.05, 0.1, 0.2, 0.4, 0.8, 1.6 and 3.2 μM) of heme, added as aliquots from a stock solution. A wavelength of 295 nm was used to selectively excite tryptophan residues. Excitation and emission slits were both adjusted to 10 nm. […] Quartz cuvette with 1 cm optical path was used in the experiment. All measurements were performed at room temperature.

[6] = test system: more than 9,000 human proteins; assay: Protein microarray (ProtoArray) reactivity; format: binding
[7] = test system: Trastuzumab; assay: Absorbance spectroscopy of heme with Trastuzumab; format: binding
Method: Absorbance spectra were measured by using UNICAM Helios b, UV-vis spectrophotometer. […] After addition of each heme aliquot and incubation for 2 min in dark, the absorbance spectra in the wavelength range 350-700 nm were recorded. The spectra were scanned at rate of 300 nm/min. All measurements were performed at room temperature, in quartz cuvettes with optical path of 1 cm.

[8] = test system: Trastuzumab; assay: Circular dichroism of Trastuzumab exposed to heme; settings: Ab 1 μM, heme 10 μM
Method: The CD spectra measurements were performed with JASCO-J710 Spectrometer. Data pitch and slit were both set to 1 nm. The data were recorded at scan speed on 10 nm/min in the range of 260-185 nm. […] The Ab was exposed or not to 10 μM concentration of heme. All spectra were acquired at 20° C. in quartz cuvettes with 1 mm optical path.

[9] = test system: MDA-MB-231 cells; assay: Direct and complement-mediated cytotoxicity (WST-1), MDA-MB-231; format: cell-based, human; settings: identical concentrations as introduced by heme-bound Trastuzumab
Method: (§1) Cells were treated on 96-wells plates with flat bottom and low evaporation lid (Coster, USA). MDA-MB-231 or SKBR3 breast cancer cells were plated and left for 2 hours to adhere. […] The Ab was diluted to a final concentration of 3.7 μg/ml. As a source of complement, baby rabbit complement (AbD Serotec) was added to obtain a dilution of ×5 (MDA-MB-231 cells) or ×8 (SKBR3 cells). As control, heat inactivated fetal calf serum was added at the same ratios. To evaluate the amount of alive cells, WST-1 dye (Roche) was added after 5 days of incubation at 37° C. The absorbance at 450 nm and 690 nm was read after 2 hours incubation at 37° C.

[10] = test system: SKBR3 cells; assay: Direct and complement-mediated cytotoxicity (WST-1), SKBR3; format: cell-based, human; settings: identical concentrations as introduced by heme-bound Trastuzumab
Method: as §1

Compound: CCC1=C(C)C2=NC1=Cc1c(C)c(CC)c3[n]1[Fe][n]1c(c(C)c(CCC(=O)O)c1=CC1=NC(=C3)C(C)=C1CCC(=O)O)=C2 [Fe (III) mesoporphyrin IX]
- induction of polyreactivity of Trastuzumab [1]: appearance of novel antigen-binding specificities
- induction of oligomerization / self-association of Trastuzumab [2]: able to induce oligomerization of Trastuzumab

Compound: C=CC1=C(C)c2cc3[n-]c(cc4[n-]c(cc5nc(cc1n2)C(C)=C5C=C)c(C)c4CCC(=O)O)c(CCC(=O)O)c3C.[Zn+2] [ZnPP, Zn (II) protoporphyrin IX, reference compound]
- induction of antibody homophilicity by heme analog [3]: failed to induced antibody homophilicity or oligomerization
- induction of oligomerization / self-association of Trastuzumab [2]: failed to induced antibody homophilicity or oligomerization

Compound: CC1=Cc2cc3[n-]c(cc4nc(cc5[n-]c(cc1n2)c(C)c5CCC(=O)O)C(CCC(=O)O)=C4C)cc3C.[Fe] [Fe (III) deuteroporphyrin IX]
- induction of polyreactivity of Trastuzumab [1]: appearance of novel antigen-binding specificities
- rank of potential to induce polyreactivity [1]: most potent inducer of polyreactivity

Compound: CC1=C(CCC(=O)O)c2cc3[n-]c(cc4nc(cc5[n-]c(cc1n2)c(CCC(=O)O)c5C)C(CCC(=O)O)=C4C)c(CCC(=O)O)c3C.[Fe+3] [Fe (III) coproporphyrin I]
- induction of polyreactivity of Trastuzumab [1]: appearance of novel antigen-binding specificities

Compound: iron protoporphyrin IX [heme]
- Kd ([4]; SPR, heme to immobilized Trastuzumab): 100 nM
- portion of the Ab binding heme ([4]; immobilized Fab fragments, Fc fragments, heme 10 μM): preferential binding to the immobilized Fab portion
- quenching of tryptophan fluorescence [5]: concentration-dependent decrease in the fluorescence signal
- binding to human proteins [6]: able to bind to numerous human proteins, but to a lower extent
- change in absorbance spectrum [7]: increased absorbance intensity of heme in high and low energy regions of the spectrum
- change of circular dichroism spectra [8]: Considerable changes of the circular dichroism ellipticity curves
- cell proliferation, heme alone [9]: no negative impact on the cell proliferation
- cell proliferation, heme alone [10]: no negative impact on the cell proliferation
- rank of potential to induce polyreactivity [1]: lowest potential

Source: patent US20220047701A1, “COMBINATION OF HER2/NEU ANTIBODY WITH HEME FOR TREATING CANCER” (INSERM (Institut National de la Santé et de la Recherche …, priority 2018, published 2022)
